# Laboratory results published in ChEMBL document CHEMBL5154752, “CLIPSing Melanotan-II to Discover Multiple Functionally Selective hMCR Agonists” (J Med Chem, 2022).
# What was measured:
# [1] = target: T1, Melanocyte-stimulating hormone receptor (Homo sapiens, UniProt Q01726); test: Agonist activity at human MC1R expressed in HEK293 cells assessed as maximal intracellular cAMP accumulation by fluorescence based analysis; type: functional, cell-based
# Target sequence in this assay (Q01726 whole entry): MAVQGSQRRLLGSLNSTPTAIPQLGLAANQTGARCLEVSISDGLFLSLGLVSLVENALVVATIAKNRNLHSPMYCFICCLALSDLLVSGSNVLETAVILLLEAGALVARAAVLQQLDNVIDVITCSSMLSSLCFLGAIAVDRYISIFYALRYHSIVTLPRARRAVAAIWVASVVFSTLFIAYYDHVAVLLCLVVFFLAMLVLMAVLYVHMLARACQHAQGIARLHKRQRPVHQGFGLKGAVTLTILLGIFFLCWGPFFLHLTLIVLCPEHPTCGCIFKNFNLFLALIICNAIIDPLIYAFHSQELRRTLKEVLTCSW
# [2] = target: T2, Melanocortin receptor 5 (Homo sapiens, UniProt P33032); test: Agonist activity at human MC5R expressed in HEK293 cells assessed as maximal intracellular cAMP accumulation at 10 uM by fluorescence based analysis relative to control; type: functional, cell-based; details: filed as agonist
# [3] = target: T1, Melanocyte-stimulating hormone receptor; test: Displacement of [125I]NDP-alpha-MSH from human MC1R expressed in HEK293 cells by competitive binding assay; type: cell-based
# Target sequence in this assay (Q01726 whole entry): as above
# [4] = target: T3, Melanocortin receptor 3 (Homo sapiens, UniProt P41968); test: Displacement of [125I]NDP-alpha-MSH from human MC3R expressed in HEK293 cells by competitive binding assay; type: cell-based
# [5] = target: T4, Melanocortin receptor 4 (Homo sapiens, UniProt P32245); test: Displacement of [125I]NDP-alpha-MSH from human MC4R expressed in HEK293 cells by competitive binding assay; type: cell-based
# [6] = target: T2, Melanocortin receptor 5; test: Displacement of [125I]NDP-alpha-MSH from human MC5R expressed in HEK293 cells by competitive binding assay; type: cell-based
# [7] = target: T1, Melanocyte-stimulating hormone receptor; test: Agonist activity at human MC1R expressed in HEK293 cells assessed as maximal intracellular cAMP accumulation at 10 uM by fluorescence based analysis relative to control; type: functional, cell-based; details: filed as agonist
# Target sequence in this assay (Q01726 whole entry, looked up): as the sequence (Q01726 whole entry) above
# [8] = target: T3, Melanocortin receptor 3; test: Agonist activity at human MC3R expressed in HEK293 cells assessed as maximal intracellular cAMP accumulation by fluorescence based analysis; type: functional, cell-based
# [9] = target: T3, Melanocortin receptor 3; test: Agonist activity at human MC3R expressed in HEK293 cells assessed as maximal intracellular cAMP accumulation at 10 uM by fluorescence based analysis relative to control; type: functional, cell-based; details: filed as agonist
# [10] = target: T4, Melanocortin receptor 4; test: Agonist activity at human MC4R expressed in HEK293 cells assessed as maximal intracellular cAMP accumulation by fluorescence based analysis; type: functional, cell-based
# [11] = target: T2, Melanocortin receptor 5; test: Agonist activity at human MC5R expressed in HEK293 cells assessed as maximal intracellular cAMP accumulation by fluorescence based analysis; type: functional, cell-based
# [12] = target: T2, Melanocortin receptor 5; test: Agonist activity at human MC5R expressed in HEK293 cells assessed as cAMP accumulation at 10 uM by fluorescence based analysis relative to control; type: functional, cell-based
# T4 sequence (P32245 whole entry): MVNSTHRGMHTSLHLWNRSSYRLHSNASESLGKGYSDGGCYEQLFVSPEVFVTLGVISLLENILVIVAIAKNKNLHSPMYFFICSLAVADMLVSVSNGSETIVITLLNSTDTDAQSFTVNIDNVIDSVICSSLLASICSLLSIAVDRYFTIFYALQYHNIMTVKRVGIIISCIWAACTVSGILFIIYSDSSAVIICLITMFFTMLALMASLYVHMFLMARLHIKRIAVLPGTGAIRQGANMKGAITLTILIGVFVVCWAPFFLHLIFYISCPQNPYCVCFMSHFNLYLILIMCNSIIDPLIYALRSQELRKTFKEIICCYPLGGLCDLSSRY
# T3 sequence (P41968 whole entry): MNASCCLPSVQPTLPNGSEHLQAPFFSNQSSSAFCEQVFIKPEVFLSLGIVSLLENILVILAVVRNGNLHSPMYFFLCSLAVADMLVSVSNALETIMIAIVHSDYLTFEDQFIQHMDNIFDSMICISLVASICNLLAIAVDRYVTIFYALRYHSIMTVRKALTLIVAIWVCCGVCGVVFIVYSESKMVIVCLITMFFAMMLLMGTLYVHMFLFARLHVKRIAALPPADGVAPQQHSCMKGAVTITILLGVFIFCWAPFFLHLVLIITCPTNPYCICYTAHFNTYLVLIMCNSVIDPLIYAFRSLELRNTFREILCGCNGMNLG
# T2 sequence (P33032 whole entry): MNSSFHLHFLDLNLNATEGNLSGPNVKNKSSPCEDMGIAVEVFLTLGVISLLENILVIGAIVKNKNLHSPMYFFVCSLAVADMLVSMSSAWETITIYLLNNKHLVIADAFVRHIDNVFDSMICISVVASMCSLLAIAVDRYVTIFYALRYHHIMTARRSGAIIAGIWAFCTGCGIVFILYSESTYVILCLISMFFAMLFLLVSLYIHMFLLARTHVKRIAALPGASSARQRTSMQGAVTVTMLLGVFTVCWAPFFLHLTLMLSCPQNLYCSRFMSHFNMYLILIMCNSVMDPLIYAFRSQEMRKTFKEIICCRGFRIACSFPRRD
EC50 [1],Activity [2],IC50 [3],IC50 [4],IC50 [5],IC50 [6],Activity [7],EC50 [8],Activity [9],EC50 [10],EC50 [11],Activity [12],SMILES
> 1000 nM,100%,70 nM,244 nM,628 nM,93.5 nM,100%,9.4 nM,100%,618 nM,126 nM,,CCCC[C@H](NC(C)=O)C(=O)N[C@@H]1C(=O)N[C@@H](Cc2c[nH]cn2)C(=O)N[C@H](Cc2ccccc2)C(=O)N[C@@H](CCCNC(=N)N)C(=O)N[C@@H](Cc2c[nH]c3ccccc23)C(=O)N[C@H](C(N)=O)CSCc2cccc(c2)CSC1(C)C
4 nM,,7.3 nM,24 nM,,2 nM,,645 nM,,,> 1000 nM,,CCCC[C@H](NC(C)=O)C(=O)N[C@H]1CSCc2ccc(cc2)CSC[C@@H](C(N)=O)NC(=O)[C@H](Cc2c[nH]c3ccccc23)NC(=O)[C@H](CCCNC(=N)N)NC(=O)[C@@H](Cc2ccccc2)NC(=O)[C@H](Cc2c[nH]cn2)NC1=O
,,> 1000 nM,> 1000 nM,> 1000 nM,> 1000 nM,,,,,,,CCCC[C@H](NC(C)=O)C(=O)N[C@@H]1C(=O)N[C@@H](Cc2c[nH]cn2)C(=O)N[C@H](Cc2ccccc2)C(=O)N[C@@H](CCCNC(=N)N)C(=O)N[C@@H](Cc2c[nH]c3ccccc23)C(=O)N[C@H](C(N)=O)C(C)(C)SCc2ccc(cc2)CSC1(C)C
,,150 nM,222 nM,619 nM,157 nM,,,,,,,CCCC[C@H](NC(C)=O)C(=O)N[C@@H]1C(=O)N[C@@H](Cc2c[nH]cn2)C(=O)N[C@H](Cc2ccccc2)C(=O)N[C@@H](CCCNC(=N)N)C(=O)N[C@@H](Cc2c[nH]c3ccccc23)C(=O)N[C@H](C(N)=O)CSCc2ccccc2CSC1(C)C
,,450 nM,450 nM,> 1000 nM,172 nM,,,,,,,CCCC[C@H](NC(C)=O)C(=O)N[C@@H]1C(=O)N[C@@H](Cc2c[nH]cn2)C(=O)N[C@H](Cc2ccccc2)C(=O)N[C@@H](CCCNC(=N)N)C(=O)N[C@@H](Cc2c[nH]c3ccccc23)C(=O)N[C@H](C(N)=O)C(C)(C)SCc2cccc(c2)CSC1(C)C
107 nM,100%,275 nM,302 nM,9.1 nM,78 nM,100%,> 1000 nM,100%,360 nM,> 1000 nM,,CCCC[C@H](NC(C)=O)C(=O)N[C@H]1CSCc2ccccc2CSC[C@@H](C(N)=O)NC(=O)[C@H](Cc2c[nH]c3ccccc23)NC(=O)[C@H](CCCNC(=N)N)NC(=O)[C@@H](Cc2ccccc2)NC(=O)[C@H](Cc2c[nH]cn2)NC1=O
,,227 nM,> 1000 nM,> 1000 nM,422 nM,,,,,,,CCCC[C@H](NC(C)=O)C(=O)N[C@@H]1C(=O)N[C@@H](Cc2c[nH]cn2)C(=O)N[C@H](Cc2ccccc2)C(=O)N[C@@H](CCCNC(=N)N)C(=O)N[C@@H](Cc2c[nH]c3ccccc23)C(=O)N[C@H](C(N)=O)CSCc2ccc(cc2)CSC1(C)C
3 nM,100%,19 nM,64 nM,57.2 nM,69 nM,100%,246 nM,100%,219 nM,48 nM,,CCCC[C@H](NC(C)=O)C(=O)N[C@H]1CSCc2ccc(cc2)CSC(C)(C)[C@@H](C(N)=O)NC(=O)[C@H](Cc2c[nH]c3ccccc23)NC(=O)[C@H](CCCNC(=N)N)NC(=O)[C@@H](Cc2ccccc2)NC(=O)[C@H](Cc2c[nH]cn2)NC1=O
,,553 nM,452 nM,> 1000 nM,507 nM,,,,,,,CCCC[C@H](NC(C)=O)C(=O)N[C@@H]1C(=O)N[C@@H](Cc2c[nH]cn2)C(=O)N[C@H](Cc2ccccc2)C(=O)N[C@@H](CCCNC(=N)N)C(=O)N[C@@H](Cc2c[nH]c3ccccc23)C(=O)N[C@H](C(N)=O)C(C)(C)SCc2ccccc2CSC1(C)C
3 nM,,3.5 nM,32 nM,,4.4 nM,,902 nM,,,> 1000 nM,,CCCC[C@H](NC(C)=O)C(=O)N[C@H]1CSCc2cccc(c2)CSC[C@@H](C(N)=O)NC(=O)[C@H](Cc2c[nH]c3ccccc23)NC(=O)[C@H](CCCNC(=N)N)NC(=O)[C@@H](Cc2ccccc2)NC(=O)[C@H](Cc2c[nH]cn2)NC1=O
6.1 nM,100%,44 nM,74 nM,45.8 nM,46 nM,100%,> 1000 nM,100%,> 1000 nM,,0%,CCCC[C@H](NC(C)=O)C(=O)N[C@H]1CSCc2ccccc2CSC(C)(C)[C@@H](C(N)=O)NC(=O)[C@H](Cc2c[nH]c3ccccc23)NC(=O)[C@H](CCCNC(=N)N)NC(=O)[C@@H](Cc2ccccc2)NC(=O)[C@H](Cc2c[nH]cn2)NC1=O
6.5 nM,,9 nM,71 nM,,30 nM,,435 nM,,,> 1000 nM,,CCCC[C@H](NC(C)=O)C(=O)N[C@H]1CSCc2cccc(c2)CSC(C)(C)[C@@H](C(N)=O)NC(=O)[C@H](Cc2c[nH]c3ccccc23)NC(=O)[C@H](CCCNC(=N)N)NC(=O)[C@@H](Cc2ccccc2)NC(=O)[C@H](Cc2c[nH]cn2)NC1=O
